Here are results for five compounds from PMC12471853, “New Marine Actinobacteria Strain, Micromonospora sp. SH-82: Characterization, Specialized Metabolites and Biological Activities” (Microorganisms, 2025).

Like-named read-outs stand apart in the source and are kept apart here.

The subject of data set [1] is Plasmodium falciparum 3D7. Briefly: Antiplasmodial activity, in vitro culture of chloroquine-sensitive strain. Format: cell-based. How it is done: Biological activity assays were conducted on microbial extract from Micromonospora sp. SH-82 and on isolated compounds 1, 2, 3, and 5. The tests focused on antiplasmodial and cytotoxic activity. Detailed protocols for these activity tests can be found in reference. The antiplasmodial activity was conducted by using in vitro cultures of the chloroquine-sensitive 3D7 strain of Plasmodium falciparum (BEI Resources, Manassas, VA, USA) following the methodology of Trager and Jensen. The assays were performed in three independent experiments (n = 3), each conducted in duplicate. Artemisinin was used as the positive control, while DMSO served as the vehicle and negative control, representing 100% parasite growth. Untreated red blood cells were also included as a blank. The measurements consisted of determining the concentration required to inhibit 50% of parasite growth (IC50), expressed in µg/mL for the crude extract and in µM for the isolated compounds. IC50 values were calculated via simple linear regression.

Data set [2] can be described thus: Cytotoxicity on non-cancerous cell line, CellTiter Glo luminescent cell viability assay, 72 h. Format: cell-based, human. To be noted: human, hTERT-RPE1 cells (non-cancerous cell line), 72 h, read-out: Percentage of Cell Viability; for viability at 72 h, 1 µM: RPE1, pure compounds at 1 µM; for viability at 72 h, 10 µM: RPE1, pure compounds at 10 µM. How it is done:
(§1) Biological activity assays were conducted on microbial extract from Micromonospora sp. SH-82 and on isolated compounds 1, 2, 3, and 5. The tests focused on antiplasmodial and cytotoxic activity. Detailed protocols for these activity tests can be found in reference. The cytotoxic activity was performed on human colorectal HCT-116 and mammary MDA-MB-231 carcinoma cells. Human HCT-116 colorectal carcinoma cells were grown in Gibco McCoy’s 5A supplemented with 10% fetal calf serum and 1% glutamine. MDA-MB231 breast carcinomas were grown in RPMI 1640 supplemented with 10% fetal calf serum and 1% glutamine. Human hTERT-RPE1 cells were cultured in DMEM/F12 medium containing 10% fetal calf serum and 1% glutamine, enabling their impact on a healthy cell line. Cell lines were maintained at 37 °C in a humidified atmosphere containing 5% CO2. Cell viability was determined via a luminescent assay according to the manufacturer’s instructions (Promega, Madison, WI, USA). Briefly, the cells were seeded in 96-well plates (2.5 × 10^3 cells/well) containing 90 μL of growth medium. After 24 h of culture, the cells were treated with the tested compounds at 10 and 1 μg/mL (extracts) or at 10 and 1 μM (pure compounds) final concentrations. Control cells were treated with the vehicle (DMSO), and no effect was observed from DMSO diluted at 1/1000. After 72 h of incubation, 100 μL of CellTiter Glo Reagent was added for 15 min before recording luminescence with a spectrophotometric plate reader PolarStar Omega (BMG LabTech, Ortenberg, Germany). The percent viability index was evaluated by two independent assays in triplicate.
(In general: Cellular ATP, detected with luciferase, serves as a proxy for viable cell number.)

Data set [3] concerns RPE1 cell line. Described as above. Format: cell-based, human. To be noted: RPE1; 10 and 1 µM (compounds) or 10 and 1 µg/mL (extract). How it is done:
as §1

Data set [4] in a line: Cytotoxic activity, CellTiter Glo luminescent cell viability assay, 72 h. Format: cell-based. To be noted: human, read-out: Percentage of Cell Viability. How it is done: as §1
A short description of data set [5]: Stability check of compound 5 by new NMR and ESI+-HRMS analyses. Format: physicochemical. To be noted: re-analysis by NMR and ESI+-HRMS prior to biological assays, one year later (Figure S43). How it is done:
Prior to conducting biological assays, it was necessary to ascertain the stability of compound 5. To this end, new NMR and ESI^+-HRMS analyses were recorded (Figures S38–S43). […] The first one could be identified as the 9-hydroxy derivative of 5 and, thus, to 6,9-hemiacetal-9-hydroxy-10,11-anhydroerythronolide B (5.1) (Figure 2). The second one has a carbonyl in C-9 at δC 208.8 and, therefore, corresponds to the open form of the first one: 8-epi-10,11-anhydroerythronolide B (5.2) (Figure 2).

Where [6] appears, read: HCT-116 colorectal carcinoma cells, HCT-116, pure compounds at 1 µM.
Where [7] appears, read: HCT-116 colorectal carcinoma cells, HCT-116, pure compounds at 10 µM.
Where [8] appears, read: MDA-MB-231 breast carcinoma cells, MDA-MB-231, pure compounds at 1 µM.
Setting [9] is: MDA-MB-231 breast carcinoma cells, MDA-MB-231, pure compounds at 10 µM.

As to `C[C@@H]1CC[C@H]2[C@@H](C)C(=O)O[C@@H]3O[C@@]4(C)CC[C@@H]1[C@]32OO4` [Artemisinin, reference compound], in data set [1] (3D7, positive control, read-out: IC50 against Plasmodium falciparum 3D7 (converted)), the IC50 (in general, the concentration at which inhibition is half-maximal) is 0.00636 µg/mL.
Turning to `CC[C@H]1OC(=O)[C@H](C)[C@@H](O)[C@H](C)[C@@H](O)[C@](C)(O)C[C@@H](C)C(=O)[C@H](C)[C@@H](O)[C@H]1C` [Compound 1, Erythronolide B], the figures for the viability at 72 h, 1 µM in data set [2], in data set [4] (setting [6]) and in data set [4] (setting [8]) were 102 ± 1.58%, 101 ± 0.5% and 107 ± 0.86%, respectively. The viability (usually a read-out of living cells in per cent, often relative to untreated cells) at 72 h, 10 µM in data set [2] amounted to 97.3 ± 1.03%; in data set [4] (setting [7]), 104 ± 1.16%; in data set [4] (setting [9]) it was 100 ± 0.76%. Also, the “toxicity towards healthy cells (in words)” value in data set [3] is recorded as “No activity”.
As to `CC[C@H]1OC(=O)[C@H](C)[C@@H](O)[C@H](C)[C@@H](O)[C@@H](C)C[C@@H](C)C(=O)[C@H](C)[C@@H](O)[C@H]1C` [Compound 2, 6-desoxyerythronolide B], the viability at 72 h, 1 µM in data set [2] turned out to be 99.1 ± 1.4%; in data set [4] (setting [6]), 101 ± 1.62%; in data set [4] (setting [8]) it was 105 ± 1.56%. The values for the viability at 72 h, 10 µM in data set [2], in data set [4] (setting [7]) and in data set [4] (setting [9]) were 95.3 ± 0.96%, 103 ± 3.56% and 101 ± 1.13%, respectively. For the same compound, the “toxicity towards healthy cells (in words)” value in data set [3] is given as “No activity”.
With `CCC1OC(=O)C(C)C(OC2CC(C)(OC(C)=O)C(OC(C)=O)C(C)O2)C(C)C(OC2OC(C)CC(N(C)C)C2O)C(C)(OC2CC(N(C)C)C(O)C(C)O2)CC(C)C(=O)C(C)C(O)C1(C)O` (stereo not drawn) [Compound 3, megalomicin C1], the results for the viability at 72 h, 1 µM in data set [2], in data set [4] (setting [6]) and in data set [4] (setting [8]) were 104 ± 1.32%, 100 ± 1.66% and 102 ± 1.74%, respectively. The results for the viability at 72 h, 10 µM in data set [2], in data set [4] (setting [7]) and in data set [4] (setting [9]) were 104 ± 1.94%, 97.3 ± 2.22% and 98.6 ± 1.38%, respectively. The “toxicity towards healthy cells (in words)” value in data set [3] is listed as “No activity”. In addition, the IC50 in data set [1] (3D7, Experiment 1, dose-response curve, Figure 8, read-out: IC50 against Plasmodium falciparum 3D7 (converted)) is 3.61 µM; in data set [1] (3D7, Experiment 2, dose-response curve, Figure 8, read-out: IC50 against Plasmodium falciparum 3D7 (converted)), 9.54 µM; in data set [1] (3D7, Experiment 3, dose-response curve, Figure 8, read-out: IC50 against Plasmodium falciparum 3D7 (converted)), 5.96 µM; in data set [1] (3D7, IC50 obtained from the average dose-response curve, Figure 8, read-out: IC50 (mean curve)) it was 6.31 µM; in data set [1] (3D7, arithmetic mean ± SD of three independent assays, read-out: IC50 against Plasmodium falciparum 3D7 (converted)), 6.37 µM; in data set [1] (3D7, mean ± SD of three independent assays, read-out: IC50 against Plasmodium falciparum 3D7 (converted)) it was 6.12 ± 2.87 µg/mL.
Regarding `CCC1OC(=O)C(C)C(O)C(C)C(O)C2(C)CC(C)C(OC)(O2)C(C)=CC1C` (stereo not drawn) [Compound 5, 6,9-hemiacetal-9-O-methyl-10,11-anhydroerythronolide B], the viability at 72 h, 1 µM is 103 ± 1.52% in data set [2], 99.1 ± 0.32% in data set [4] (setting [6]) and 100 ± 1.74% in data set [4] (setting [8]). The viability at 72 h, 10 µM in data set [2] came to 103 ± 1.77%; in data set [4] (setting [7]), 99.7 ± 0.59%; in data set [4] (setting [9]), 99 ± 3.28%. The “toxicity towards healthy cells (in words)” value in data set [3] is on record as “No activity”. Further, the “stability of the compound (in words)” value in data set [5] is given as “a mixture of two compounds is observed”.
